Legend:
Format in all cases: cell-based
HTT mRNA = assay: RT-qPCR splicing assay for HTT mRNA isoforms (canonical junction CJ and alternative junction AJ); conditions: A673 or K562 cell line, 24 hours compound treatment; for IC50: decrease in CJ mRNA; for AC50: increase in AJ mRNA
Protocol: (§1) Compounds described herein were used to modulate RNA transcript abundance in cells. The expression of a target mRNA was measured by detecting the formation of an exon-exon junction in the canonical transcript (CJ). A compound mediated exon-inclusion event was detected by observing an increase in formation of a new junction with an alternative exon (AJ). Real-time qPCR assays were used to detect these splicing switches and interrogate the potency of various compounds towards different target genes. A high-throughput real time quantitative PCR (RT-qPCR) assay was developed to measure these two isoforms of the mRNA (CJ and AJ) for an exemplary gene, HTT, together with a control housekeeping gene, GAPDH or GUSB or PPIA, used for normalization. Briefly, the A673 or K562 cell line was treated with various compounds described herein (e.g., compounds of Formula (I)). After treatment, the levels of the HTT mRNA targets were determined from each sample of cell lysate by cDNA synthesis followed by qPCR.
Cells-to-CT 1-step kit: ThermoFisher A25602, Cells-to-CT lysis reagent: ThermoFisher 4391851C, TaqMan™ Fast Virus 1-Step Master Mix: ThermoFisher 4444436 GAPDH: VIC-PL, ThermoFisher 4326317E (Assay: Hs99999905_m1)—used for K562/suspension cell lines GUSB: VIC-PL, ThermoFisher 4326320E (Assay: Hs99999908_m1)—used for K562/suspension cell lines PPIA: VIC-PL, ThermoFisher 4326316E (Assay: Hs99999904_m1)—used for A673/adherent cell lines
(§2) The A673 cell line was cultured in DMEM with 10% FBS. Cells were diluted with full growth media and plated in a 96-well plate (15,000 cells in 100 ul media per well). The plate was incubated at 37° C. with 5% CO2 for 24 hours to allow cells to adhere. An 11-point 3-fold serial dilution of the compounds was made in DMSO then diluted in media in an intermediate plate. Compounds were transferred from the intermediate plate to the cell plate with the top dose at a final concentration of 10 uM in the well. Final DMSO concentration was kept at or below 0.25%. The cell plate was returned to the incubator at 37° C. with 5% CO2 for an additional 24 hours.
(§3) The K562 cell line was cultured in IMDM with 10% FBS. For K562, cells were diluted with full growth media and plated in either a 96-well plate (50,000 cells in 50 uL media per well) or a 384-well plate (8,000-40,000 cells in 45 uL media per well). An 11-point 3-fold serial dilution of the compounds were made in DMSO then diluted in media in an intermediate plate. Compound was transferred from the intermediate plate to the cell plate with the top dose at a final concentration of 10 uM in the well. Final DMSO concentration was kept at or below 0.25%. Final volume was 100 uL for 96-well plate and 50 uL for 384-well plate. The cell plate was then placed in an incubator at 37° C. with 5% CO2 for 24 hours.
(§4) The cells were then gently washed with 50 uL-100 uL cold PBS before proceeding to addition of lysis buffer. 30 uL-50 uL of room temperature lysis buffer with DNAse I (and optionally RNAsin) was added to each well. Cells were shaken/mixed thoroughly at room temperature for 5-10 minutes for lysis to take place and then 3 uL-5 uL of room temperature stop solution was added and wells were shaken/mixed again. After 2-5 minutes, the cell lysate plate was transferred to ice for RT-qPCR reaction setup. The lysates could also be frozen at −80° C. for later use.
In some cases, a direct lysis buffer was used. An appropriate volume of 3× lysis buffer (10 mM Tris, 150 mM NaCl, 1.5%-2.5% Igepal and 0.1-1 U/uL RNAsin, pH 7.4) was directly added to either K562 or A673 cells in media and mixed by pipetting 3 times. The plates were then incubated at room temperature with shaking/rocking for 20-50 minutes to allow for lysis to take place. After this time, the cell lysate plate was transferred to ice to set up for the RT-qPCR reactions. The lysates could also be frozen at −80° C. for later use. […]

HTT CJ mRNA = assay: Gene panel canonical junction qPCR assay, HTT; conditions: decrease in CJ mRNA levels, RT-qPCR
Protocol: as §1, §2, §3, §4
(§5) In some cases, a direct lysis buffer was used. An appropriate volume of 3× lysis buffer (10 mM Tris, 150 mM NaCl, 1.5%-2.5% Igepal and 0.1-1 U/uL RNAsin, pH 7.4) was directly added to either K562 or A673 cells in media and mixed by pipetting 3 times. The plates were then incubated at room temperature with shaking/rocking for 20-50 minutes to allow for lysis to take place. After this time, the cell lysate plate was transferred to ice to set up for the RT-qPCR reactions. The lysates could also be frozen at −80° C. for later use.
(§6) To set up 10 uL RT-qPCR reactions, cell lysates were transferred to 384-well qPCR plates containing the master mix according to the table below. The plates were sealed, gently vortexed, and spun down before the run. The volumes were adjusted accordingly in some instances where the reaction was carried in 20 uL. The table below summarizes the components of the RT-qPCR reactions:
(§7) The RT-qPCR reaction was performed using a QuantStudio (ThermoFisher) under the following fast cycling conditions. […]

SMN2 CJ mRNA = assay: Gene panel canonical junction qPCR assay, SMN2; conditions: decrease in CJ mRNA levels, RT-qPCR
Protocol: as §1, §2, §3, §4, §5, §6, §7

Target C CJ mRNA = assay: Gene panel canonical junction qPCR assay, Target C; conditions: decrease in CJ mRNA levels, RT-qPCR
Protocol: as §1, §2, §3, §4, §5, §6, §7

SMILES	IC50 (HTT mRNA) [nM]	AC50 (HTT mRNA) [nM]	IC50 (HTT CJ mRNA) [nM]	IC50 (SMN2 CJ mRNA) [nM]	IC50 (Target C CJ mRNA) [nM]
CN(c1cnc2c(n1)OCc1cc(-c3cn[nH]c3)ccc1-2)C1CC(C)(C)NC(C)(C)C1 [Compound 142, N,2,2,6,6-pentamethyl-N-[8-(1H-pyrazol-4-yl)-6H-isochromeno[3,4-b]pyrazin-3-yl]piperidin-4-amine]	100 to 1000	100 to 1000	100 to 1000	100 to 1000	1000 to 10000
CN1C[C@@H]2[C@H](C1)[C@H]2N(C)c1ccc2c(n1)OCc1cc(-n3cccn3)ccc1-2 [Compound 196]	> 10000	> 10000	> 10000	> 10000	> 10000
CN(c1ccc2c(n1)OCc1cc(-n3nccn3)ccc1-2)[C@@H]1C[C@H]2CC[C@@H](C1)N2 [Compound 151]	< 100	< 100	< 100	< 100	100 to 1000
CC1(C)CC(Oc2ccc3c(n2)OCc2cc(-n4cccn4)ccc2-3)CCN1 (centres unmarked) [Compound 186]	1000 to 10000	1000 to 10000	1000 to 10000	100 to 1000	> 10000
CN(c1ccc2c(n1)OCc1cc(-c3cn[nH]c3)ccc1-2)C1CCNCC1 [Compound 116, N-Methyl-N-[8-(1H-pyrazol-4-yl)-6H-isochromeno[3,4-b]pyridin-3-yl]piperidin-4-amine]	100 to 1000	1000 to 10000	100 to 1000	100 to 1000	100 to 1000
CN(c1ccc2c(n1)OCc1cc(-c3cn[nH]c3)ccc1-2)C1CC(C)(C)NC(C)(C)C1 [Compound 147, N,2,2,6,6-pentamethyl-N-[8-(1H-pyrazol-4-yl)-6H-isochromeno[3,4-b]pyridin-3-yl]piperidin-4-amine]	100 to 1000	100 to 1000	100 to 1000	> 10000	100 to 1000
c1cnn(-c2ccc3c(c2)COc2nc(N(C4CCNCC4)C4CC4)ccc2-3)c1 [Compound 202]	1000 to 10000	> 10000	1000 to 10000	> 10000	> 10000
CN(c1ccc2c(n1)OCc1cc(-c3cnn(C)c3)ccc1-2)[C@@H]1C[C@H]2CC[C@@H](C1)N2 [Compound 150]	< 100	< 100	< 100	> 10000	100 to 1000
c1cnn(-c2ccc3c(c2)COc2nc(N4CCNCC4)ccc2-3)c1 [Compound 173]	> 10000	> 10000	> 10000	1000 to 10000	> 10000
[2H]C([2H])([2H])N(c1ccc2c(n1)OCc1cc(-n3cccn3)ccc1-2)C1CCNCC1 [Compound 176]	1000 to 10000	1000 to 10000	1000 to 10000	1000 to 10000	> 10000
c1cnn(-c2ccc3c(c2)COc2nc(N4CCC5(CCNCC5)C4)ccc2-3)c1 [Compound 182]	> 10000	> 10000	> 10000	> 10000	> 10000
c1cnn(-c2ccc3c(c2)COc2nc(N4CCC5(CCCNC5)C4)ccc2-3)c1 (centres unmarked) [Compound 183]	> 10000	> 10000	> 10000	100 to 1000	> 10000
c1cnn(-c2ccc3c(c2)COc2nc(N[C@@H]4C[C@H]5CC[C@@H](C4)N5)ccc2-3)c1 [Compound 179]	100 to 1000	100 to 1000	100 to 1000	100 to 1000	100 to 1000
c1cnn(-c2ccc3c(c2)COc2nc(NC4CNC4)ccc2-3)c1 [Compound 166]	> 10000	> 10000	> 10000	1000 to 10000	> 10000
c1cnn(-c2ccc3c(c2)COc2nc(N[C@@H]4C[C@H]5CCC[C@@H](C4)N5)ccc2-3)c1 [Compound 190]	< 100	100 to 1000	< 100	< 100	100 to 1000
c1cnn(-c2ccc3c(c2)OCCc2nc(N[C@@H]4C[C@H]5CC[C@@H](C4)N5)ccc2-3)c1 [Compound 136, N-[(1R,3S,5S)-8-azabicyclo[3.2.1]octan-3-yl]-13-(pyrazol-1-yl)-10-oxa-6-azatricyclo[9.4.0.0^[2,7]]pentadeca-1(11),2(7),3,5,12,14-hexaen-5-amine]	> 10000	> 10000	> 10000	> 10000	> 10000
[2H]C([2H])([2H])N(c1ccc2c(n1)OCc1cc(-n3cccn3)ccc1-2)[C@@H]1C[C@H]2CCC[C@@H](C1)N2 [Compound 200]	< 100	< 100	< 100	< 100	100 to 1000
CN(c1ccc2c(n1)OCc1cc(-c3ccc(=O)n(C)c3)ccc1-2)[C@@H]1C[C@H]2CC[C@@H](C1)N2 [Compound 158]	100 to 1000	100 to 1000	100 to 1000	100 to 1000	100 to 1000
Cc1[nH]ncc1-c1ccc2c(c1)COc1nc(N(C)[C@@H]3C[C@H]4CC[C@@H](C3)N4)ccc1-2 [Compound 154]	100 to 1000	100 to 1000	100 to 1000	100 to 1000	100 to 1000

From patent US20230148184A1, “COMPOUNDS AND METHODS FOR MODULATING SPLICING” (REMIX THERAPEUTICS INC., priority 2020, published 2023)
